According to BindingDB's records for doi:10.1021/jm7012858 (Wyeth Research, 2008):

The compounds below were run against Phosphatidylinositol 3-kinase regulatory subunit alpha/4,5-bisphosphate 3-kinase catalytic subunit alpha isoform (Homo sapiens, UniProt P42336) (assay: PI3K Inhibition Assay). Settings: not given.
Protocol: Inhibition of PI3K enzyme activity is measured in a microtiter plate-based fluorescence polarization (FP) assay.

Sequence of Phosphatidylinositol 3-kinase regulatory subunit alpha/4,5-bisphosphate 3-kinase catalytic subunit alpha isoform (P27986 whole entry, canonical isoform): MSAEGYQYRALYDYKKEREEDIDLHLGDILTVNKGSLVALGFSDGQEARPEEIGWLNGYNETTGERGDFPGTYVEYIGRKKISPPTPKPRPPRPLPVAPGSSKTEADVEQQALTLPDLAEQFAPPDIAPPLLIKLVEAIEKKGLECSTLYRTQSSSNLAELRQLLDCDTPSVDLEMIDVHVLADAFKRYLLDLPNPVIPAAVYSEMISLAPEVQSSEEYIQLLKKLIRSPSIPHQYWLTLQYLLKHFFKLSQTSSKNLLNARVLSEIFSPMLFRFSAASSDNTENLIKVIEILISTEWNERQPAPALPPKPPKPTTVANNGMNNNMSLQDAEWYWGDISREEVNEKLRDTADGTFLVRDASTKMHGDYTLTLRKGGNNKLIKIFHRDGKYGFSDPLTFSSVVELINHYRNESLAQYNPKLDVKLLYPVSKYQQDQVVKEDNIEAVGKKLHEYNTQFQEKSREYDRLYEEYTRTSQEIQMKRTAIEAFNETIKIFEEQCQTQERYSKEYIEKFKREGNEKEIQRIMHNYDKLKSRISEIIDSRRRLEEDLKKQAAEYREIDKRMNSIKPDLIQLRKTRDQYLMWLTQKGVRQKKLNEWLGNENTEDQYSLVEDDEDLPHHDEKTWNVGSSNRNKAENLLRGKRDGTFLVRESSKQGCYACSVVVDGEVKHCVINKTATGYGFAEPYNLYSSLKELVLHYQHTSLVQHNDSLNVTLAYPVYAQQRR
Sequence of Phosphatidylinositol 3-kinase regulatory subunit alpha/4,5-bisphosphate 3-kinase catalytic subunit alpha isoform (P42336 whole entry, canonical isoform): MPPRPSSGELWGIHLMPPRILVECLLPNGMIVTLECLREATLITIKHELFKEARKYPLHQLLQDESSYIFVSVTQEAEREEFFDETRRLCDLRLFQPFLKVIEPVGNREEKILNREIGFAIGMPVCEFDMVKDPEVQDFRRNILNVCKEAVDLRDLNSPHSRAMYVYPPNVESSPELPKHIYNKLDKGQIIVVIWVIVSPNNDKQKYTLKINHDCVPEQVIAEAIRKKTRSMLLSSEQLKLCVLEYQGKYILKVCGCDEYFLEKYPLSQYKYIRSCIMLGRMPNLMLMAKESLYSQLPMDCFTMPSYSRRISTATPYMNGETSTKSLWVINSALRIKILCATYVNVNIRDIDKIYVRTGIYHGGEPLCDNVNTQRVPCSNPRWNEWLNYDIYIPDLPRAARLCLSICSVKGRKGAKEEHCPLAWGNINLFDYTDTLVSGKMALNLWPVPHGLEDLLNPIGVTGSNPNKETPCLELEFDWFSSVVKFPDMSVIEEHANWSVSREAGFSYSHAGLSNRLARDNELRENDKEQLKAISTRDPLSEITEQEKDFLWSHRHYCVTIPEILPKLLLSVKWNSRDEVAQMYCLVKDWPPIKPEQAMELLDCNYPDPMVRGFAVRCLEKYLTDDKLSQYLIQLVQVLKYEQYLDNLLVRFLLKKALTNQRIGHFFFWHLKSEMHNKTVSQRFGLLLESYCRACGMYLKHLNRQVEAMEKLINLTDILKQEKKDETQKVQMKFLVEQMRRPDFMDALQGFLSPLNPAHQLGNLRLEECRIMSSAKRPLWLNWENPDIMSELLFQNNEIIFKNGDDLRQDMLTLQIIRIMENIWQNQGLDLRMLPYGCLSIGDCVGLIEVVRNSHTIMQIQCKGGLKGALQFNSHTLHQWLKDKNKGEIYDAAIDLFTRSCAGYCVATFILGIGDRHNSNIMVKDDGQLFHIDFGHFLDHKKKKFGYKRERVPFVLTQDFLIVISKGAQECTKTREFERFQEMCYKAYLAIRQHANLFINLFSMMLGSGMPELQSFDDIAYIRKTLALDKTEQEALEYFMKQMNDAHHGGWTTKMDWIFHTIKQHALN

IC50 [nM]	SMILES
172	COC[C@H]1OC(=O)C(=CN2CCC(c3ccccc3)CC2)C2C(=O)C(=O)C3=C([C@H](OC(C)=O)C[C@@]4(C)C3CC[C@@H]4O)[C@]21C (stereo partly drawn) [(2R,3S,6E,14S,15S,17R)-8,14-dihydroxy-3-(methoxymethyl)-2,15-dimethyl-5,9-dioxo-6-[(4-phenylpiperidin-1-yl)methylidene]-4-oxatetracyclo[8.7.0.0^{2,7}.0^{11,15}]heptadeca-1(10),7-dien-17-yl acetate]
1580	COC[C@H]1OC(=O)C(=CN(C)CC(=O)OC(C)(C)C)C2C(=O)C(=O)C3=C([C@H](OC(C)=O)C[C@@]4(C)C3CC[C@@H]4O)[C@]21C (stereo partly drawn) [tert-butyl 2-({[(2R,3S,6E,14S,15S,17R)-17-(acetyloxy)-8,14-dihydroxy-3-(methoxymethyl)-2,15-dimethyl-5,9-dioxo-4-oxatetracyclo[8.7.0.0^{2,7}.0^{11,15}]heptadeca-1(10),7-dien-6-ylidene]methyl}(methyl)amino)acetate]
31	COC[C@H]1OC(=O)C(=CN2CCC(C(=O)OC)CC2)C2C(=O)C(=O)C3=C([C@H](OC(C)=O)C[C@@]4(C)C3CC[C@@H]4O)[C@]21C (stereo partly drawn) [methyl 1-{[(2R,3S,6E,14S,15S,17R)-17-(acetyloxy)-8,14-dihydroxy-3-(methoxymethyl)-2,15-dimethyl-5,9-dioxo-4-oxatetracyclo[8.7.0.0^{2,7}.0^{11,15}]heptadeca-1(10),7-dien-6-ylidene]methyl}piperidine-4-carboxylate]
127	COC[C@H]1OC(=O)C(=CN(C)N2CCC(C)C2)C2C(=O)C(=O)C3=C([C@H](OC(C)=O)C[C@@]4(C)C3CC[C@@H]4O)[C@]21C (stereo partly drawn) [(2R,3S,6E,14S,15S,17R)-8,14-dihydroxy-3-(methoxymethyl)-2,15-dimethyl-6-{[methyl(3-methylpyrrolidin-1-yl)amino]methylidene}-5,9-dioxo-4-oxatetracyclo[8.7.0.0^{2,7}.0^{11,15}]heptadeca-1(10),7-dien-17-yl acetate]
12	CCN(C=C1C(=O)O[C@H](COC)[C@]2(C)C3=C(C(=O)C(=O)C12)C1CC[C@H](O)[C@@]1(C)C[C@H]3OC(C)=O)CCCN(C)C (stereo partly drawn) [(2R,3S,6E,14S,15S,17R)-6-({[3-(dimethylamino)propyl](ethyl)amino}methylidene)-8,14-dihydroxy-3-(methoxymethyl)-2,15-dimethyl-5,9-dioxo-4-oxatetracyclo[8.7.0.0^{2,7}.0^{11,15}]heptadeca-1(10),7-dien-17-yl acetate]
918	COC[C@H]1OC(=O)C(=CN(CCO)CCO)C2C(=O)C(=O)C3=C([C@H](OC(C)=O)C[C@@]4(C)C3CC[C@@H]4O)[C@]21C (stereo partly drawn) [(2R,3S,6E,14S,15S,17R)-6-{[bis(2-hydroxyethyl)amino]methylidene}-8,14-dihydroxy-3-(methoxymethyl)-2,15-dimethyl-5,9-dioxo-4-oxatetracyclo[8.7.0.0^{2,7}.0^{11,15}]heptadeca-1(10),7-dien-17-yl acetate]
50	CCN(CC)CCN(C)C=C1C(=O)O[C@H](COC)[C@]2(C)C3=C(C(=O)C(=O)C12)C1CC[C@H](O)[C@@]1(C)C[C@H]3OC(C)=O (stereo partly drawn) [(2R,3S,6E,14S,15S,17R)-6-({[2-(diethylamino)ethyl](methyl)amino}methylidene)-8,14-dihydroxy-3-(methoxymethyl)-2,15-dimethyl-5,9-dioxo-4-oxatetracyclo[8.7.0.0^{2,7}.0^{11,15}]heptadeca-1(10),7-dien-17-yl acetate]
87	COC[C@H]1OC(=O)C(=CN2CCN(Cc3ccccc3)CC2)C2C(=O)C(=O)C3=C([C@H](OC(C)=O)C[C@@]4(C)C3CC[C@@H]4O)[C@]21C (stereo partly drawn) [(2R,3S,6E,14S,15S,17R)-6-[(4-benzylpiperazin-1-yl)methylidene]-8,14-dihydroxy-3-(methoxymethyl)-2,15-dimethyl-5,9-dioxo-4-oxatetracyclo[8.7.0.0^{2,7}.0^{11,15}]heptadeca-1(10),7-dien-17-yl acetate]
56	COC[C@H]1OC(=O)C(=CN2CCN(c3ccccc3)CC2)C2C(=O)C(=O)C3=C([C@H](OC(C)=O)C[C@@]4(C)C3CC[C@@H]4O)[C@]21C (stereo partly drawn) [(2R,3S,6E,14S,15S,17R)-8,14-dihydroxy-3-(methoxymethyl)-2,15-dimethyl-5,9-dioxo-6-[(4-phenylpiperazin-1-yl)methylidene]-4-oxatetracyclo[8.7.0.0^{2,7}.0^{11,15}]heptadeca-1(10),7-dien-17-yl acetate]
43	COC[C@H]1OC(=O)C(=CN2CCN(C3CCCCC3)CC2)C2C(=O)C(=O)C3=C([C@H](OC(C)=O)C[C@@]4(C)C3CC[C@@H]4O)[C@]21C (stereo partly drawn) [(2R,3S,6E,14S,15S,17R)-6-[(4-cyclohexylpiperazin-1-yl)methylidene]-8,14-dihydroxy-3-(methoxymethyl)-2,15-dimethyl-5,9-dioxo-4-oxatetracyclo[8.7.0.0^{2,7}.0^{11,15}]heptadeca-1(10),7-dien-17-yl acetate]
37	COC[C@H]1OC(=O)C(=CN2CCOCC2)C2C(=O)C(=O)C3=C([C@H](OC(C)=O)C[C@@]4(C)C3CC[C@@H]4O)[C@]21C (stereo partly drawn) [(2R,3S,6E,14S,15S,17R)-8,14-dihydroxy-3-(methoxymethyl)-2,15-dimethyl-6-(morpholin-4-ylmethylidene)-5,9-dioxo-4-oxatetracyclo[8.7.0.0^{2,7}.0^{11,15}]heptadeca-1(10),7-dien-17-yl acetate]
10	COC[C@H]1OC(=O)C(=CN(C)CCCN2CCN(C)CC2)C2C(=O)C(=O)C3=C([C@H](OC(C)=O)C[C@@]4(C)C3CC[C@@H]4O)[C@]21C (stereo partly drawn) [(2R,3S,6E,14S,15S,17R)-8,14-dihydroxy-3-(methoxymethyl)-2,15-dimethyl-6-({methyl[3-(4-methylpiperazin-1-yl)propyl]amino}methylidene)-5,9-dioxo-4-oxatetracyclo[8.7.0.0^{2,7}.0^{11,15}]heptadeca-1(10),7-dien-17-yl acetate]
45	COC[C@H]1OC(=O)C(=CN2CCN(CCCN3CCOCC3)CC2)C2C(=O)C(=O)C3=C([C@H](OC(C)=O)C[C@@]4(C)C3CC[C@@H]4O)[C@]21C (stereo partly drawn) [(2R,3S,6E,14S,15S,17R)-8,14-dihydroxy-3-(methoxymethyl)-2,15-dimethyl-6-({4-[3-(morpholin-4-yl)propyl]piperazin-1-yl}methylidene)-5,9-dioxo-4-oxatetracyclo[8.7.0.0^{2,7}.0^{11,15}]heptadeca-1(10),7-dien-17-yl acetate]
199	COC[C@H]1OC(=O)C(=CN(C)CC(O)CO)C2C(=O)C(=O)C3=C([C@H](OC(C)=O)C[C@@]4(C)C3CC[C@@H]4O)[C@]21C (stereo partly drawn) [(2R,3S,6E,14S,15S,17R)-6-{[(2,3-dihydroxypropyl)(methyl)amino]methylidene}-8,14-dihydroxy-3-(methoxymethyl)-2,15-dimethyl-5,9-dioxo-4-oxatetracyclo[8.7.0.0^{2,7}.0^{11,15}]heptadeca-1(10),7-dien-17-yl acetate]
38	COC[C@H]1OC(=O)C(=CN2CCN(CCCN(C)C)CC2)C2C(=O)C(=O)C3=C([C@H](OC(C)=O)C[C@@]4(C)C3CC[C@@H]4O)[C@]21C (stereo partly drawn) [(2R,3S,6E,14S,15S,17R)-6-({4-[3-(dimethylamino)propyl]piperazin-1-yl}methylidene)-8,14-dihydroxy-3-(methoxymethyl)-2,15-dimethyl-5,9-dioxo-4-oxatetracyclo[8.7.0.0^{2,7}.0^{11,15}]heptadeca-1(10),7-dien-17-yl acetate]

Same assay, conditions: pH 7.5; 22 °C

IC50 [nM]	SMILES
66	COC[C@H]1OC(=O)C(=CN(CCN(C)C)Cc2ccccc2)C2C(=O)C(=O)C3=C([C@H](OC(C)=O)C[C@@]4(C)C3CC[C@@H]4O)[C@]21C (stereo partly drawn) [(2R,3S,6Z,14S,15S,17R)-6-({benzyl[2-(dimethylamino)ethyl]amino}methylidene)-8,14-dihydroxy-3-(methoxymethyl)-2,15-dimethyl-5,9-dioxo-4-oxatetracyclo[8.7.0.0^{2,7}.0^{11,15}]heptadeca-1(10),7-dien-17-yl acetate]
> 10000	COC[C@H]1OC(=O)C(=CNC(C)(C)C)C2C(=O)C(=O)C3=C([C@H](OC(C)=O)C[C@@]4(C)C3CC[C@@H]4O)[C@]21C (stereo partly drawn) [(2R,3S,6Z,14S,15S,17R)-6-[(tert-butylamino)methylidene]-8,14-dihydroxy-3-(methoxymethyl)-2,15-dimethyl-5,9-dioxo-4-oxatetracyclo[8.7.0.0^{2,7}.0^{11,15}]heptadeca-1(10),7-dien-17-yl acetate]
440	COC[C@H]1OC(=O)C(=CN(C)C(C)(C)C)C2C(=O)C(=O)C3=C([C@H](OC(C)=O)C[C@@]4(C)C3CC[C@@H]4O)[C@]21C (stereo partly drawn) [(2R,3S,6Z,14S,15S,17R)-6-{[tert-butyl(methyl)amino]methylidene}-8,14-dihydroxy-3-(methoxymethyl)-2,15-dimethyl-5,9-dioxo-4-oxatetracyclo[8.7.0.0^{2,7}.0^{11,15}]heptadeca-1(10),7-dien-17-yl acetate]
> 10000	COC[C@H]1OC(=O)C(=CNCCCN(C)C)C2C(=O)C(=O)C3=C([C@H](OC(C)=O)C[C@@]4(C)C3CC[C@@H]4O)[C@]21C (stereo partly drawn) [(2R,3S,6Z,14S,15S,17R)-6-({[3-(dimethylamino)propyl]amino}methylidene)-8,14-dihydroxy-3-(methoxymethyl)-2,15-dimethyl-5,9-dioxo-4-oxatetracyclo[8.7.0.0^{2,7}.0^{11,15}]heptadeca-1(10),7-dien-17-yl acetate]
9.6	COC[C@H]1OC(=O)C(=CN(CCN(C)C)C(C)(C)C)C2C(=O)C(=O)C3=C([C@H](OC(C)=O)C[C@@]4(C)C3CC[C@@H]4O)[C@]21C (stereo partly drawn) [(2R,3S,6Z,14S,15S,17R)-6-({tert-butyl[2-(dimethylamino)ethyl]amino}methylidene)-8,14-dihydroxy-3-(methoxymethyl)-2,15-dimethyl-5,9-dioxo-4-oxatetracyclo[8.7.0.0^{2,7}.0^{11,15}]heptadeca-1(10),7-dien-17-yl acetate]
382	CCN(C=C1C(=O)O[C@H](COC)[C@]2(C)C3=C(C(=O)C(=O)C12)C1CC[C@H](O)[C@@]1(C)C[C@H]3OC(C)=O)CC (stereo partly drawn) [(2R,3S,6Z,14S,15S,17R)-6-[(diethylamino)methylidene]-8,14-dihydroxy-3-(methoxymethyl)-2,15-dimethyl-5,9-dioxo-4-oxatetracyclo[8.7.0.0^{2,7}.0^{11,15}]heptadeca-1(10),7-dien-17-yl acetate]
